Test results as given in ChEMBL document CHEMBL4177649, “On-site reaction for PPARγ modification using a specific bifunctional ligand” (Bioorg Med Chem, 2017).
Activity calls are given as the source filed them. No cut-off for these calls is given here.

What was measured:
[1] = target: T1, Peroxisome proliferator-activated receptor gamma (Homo sapiens) (UniProt P37231); test: Binding affinity to Gal4-fused PPARgamma LBD (unknown origin) expressed in Escherichia coli DH5alpha cell lysates at 4 equiv in presence of ADIBO-fluorescein by Coomassie Brilliant Blue staining method
T1 sequence (whole entry): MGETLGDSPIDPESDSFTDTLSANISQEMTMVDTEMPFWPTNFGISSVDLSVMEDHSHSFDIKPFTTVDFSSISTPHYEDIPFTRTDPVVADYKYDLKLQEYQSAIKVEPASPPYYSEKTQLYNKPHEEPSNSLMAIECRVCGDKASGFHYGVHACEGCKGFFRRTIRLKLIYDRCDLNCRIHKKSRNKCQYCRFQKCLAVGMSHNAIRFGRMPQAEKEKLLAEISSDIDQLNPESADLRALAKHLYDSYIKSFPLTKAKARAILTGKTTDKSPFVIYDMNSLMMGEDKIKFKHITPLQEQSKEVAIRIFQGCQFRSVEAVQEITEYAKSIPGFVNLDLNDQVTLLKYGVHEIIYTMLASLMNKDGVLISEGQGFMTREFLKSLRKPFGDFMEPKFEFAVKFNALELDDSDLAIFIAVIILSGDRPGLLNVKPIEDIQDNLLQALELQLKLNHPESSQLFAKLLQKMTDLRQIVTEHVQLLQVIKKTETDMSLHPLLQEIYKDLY

[2] = target: T1, Peroxisome proliferator-activated receptor gamma (Homo sapiens); test: Binding affinity to Gal4-fused human PPARgamma LBD (204 to 477 residues) assessed as labeling efficiency at 100 uM after 12 hrs by ESI-mass analysis
[3] = target: T1, Peroxisome proliferator-activated receptor gamma (Homo sapiens); test: Binding affinity to Gal4-fused PPARgamma LBD (unknown origin) expressed in Escherichia coli DH5alpha cell lysates in presence of ADIBO-fluorescein by SDS-PAGE analysis
[4] = target: T1, Peroxisome proliferator-activated receptor gamma (Homo sapiens); test: Binding affinity to Gal4-fused PPARgamma LBD (unknown origin) expressed in Escherichia coli DH5alpha cell lysates at 4 equiv in presence of ADIBO-fluorescein by SDS-PAGE analysis
[5] = target: T2, Peroxisome proliferator-activated receptor gamma (Mus musculus) (UniProt P37238); test: Binding affinity to Gal4-fused PPARgamma LBD in mouse 3T3-L1 cells assessed in presence of ADIBO-fluorescein; assay type: cell-based
T2 sequence (whole entry): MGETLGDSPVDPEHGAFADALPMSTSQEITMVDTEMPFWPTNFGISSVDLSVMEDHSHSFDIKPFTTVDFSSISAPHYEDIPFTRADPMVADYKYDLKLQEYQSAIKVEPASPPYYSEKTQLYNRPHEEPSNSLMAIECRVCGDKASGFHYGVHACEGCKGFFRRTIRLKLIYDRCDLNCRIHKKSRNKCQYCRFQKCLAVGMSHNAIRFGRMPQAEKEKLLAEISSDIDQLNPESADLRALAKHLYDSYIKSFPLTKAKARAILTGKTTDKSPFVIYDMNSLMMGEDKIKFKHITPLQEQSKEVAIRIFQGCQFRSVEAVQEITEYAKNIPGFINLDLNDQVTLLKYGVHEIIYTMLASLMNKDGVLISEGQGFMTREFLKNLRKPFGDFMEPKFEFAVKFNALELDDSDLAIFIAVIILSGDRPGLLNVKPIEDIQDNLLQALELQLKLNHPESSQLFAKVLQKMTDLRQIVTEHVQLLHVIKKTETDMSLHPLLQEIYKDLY

[6] = target: T1, Peroxisome proliferator-activated receptor gamma (Homo sapiens); test: Binding affinity to human Gal4-fused PPARgamma LBD expressed in African green monkey COS7 cells assessed in presence of ADIBO-fluorescein; assay type: cell-based
[7] = target: T1, Peroxisome proliferator-activated receptor gamma (Homo sapiens); test: Binding affinity to Gal4-fused human PPARgamma LBD (204 to 477 residues) assessed as covalent modification at 100 uM after 24 hrs by ESI-mass analysis
[8] = target: T1, Peroxisome proliferator-activated receptor gamma (Homo sapiens); test: Transactivation at human Gal4-fused PPARgamma LBD expressed in African green monkey COS7 cells by dual luciferase assay; assay type: cell-based
[9] = target: T1, Peroxisome proliferator-activated receptor gamma (Homo sapiens); test: Binding affinity to Gal4-fused PPARgamma LBD (unknown origin) expressed in Escherichia coli DH5alpha cell lysates at 4 equiv in presence of ADIBO-fluorescein by silver staining method
[10] = target: T1, Peroxisome proliferator-activated receptor gamma (Homo sapiens); test: Binding affinity to Gal4-fused human PPARgamma LBD (204 to 477 residues) assessed as covalent modification at 100 uM after 24 hrs in presence of methyl N-((3E,5E)-16-azido-2-oxohexadeca-3,5-dien-1-yl)-N-tosylglycinate by ESI-mass analysis
[11] = target: T1, Peroxisome proliferator-activated receptor gamma (Homo sapiens); test: Binding affinity to Gal4-fused human PPARgamma LBD (204 to 477 residues) assessed as covalent modification at 100 uM after 24 hrs in presence of methyl N-((3E,5E)-2-oxohexadeca-3,5-dien-1-yl)-N-tosylglycinate by ESI-mass analysis

## O=C(O)c1cc(NC(=S)NCCCCCC(=O)N2Cc3ccccc3C#Cc3ccccc32)ccc1-c1c2ccc(=O)cc-2oc2cc(O)ccc12
[1]
  Activity: Active

## COC(=O)CN(CC(=O)/C=C/C=C/CCCCCCCCCCN=[N+]=[N-])S(=O)(=O)c1ccc(C)cc1
[1]
  Activity: Active
[2]
  Activity: Active
[3]
  Activity: Dose-dependent effect
[4]
  Activity: Active
[5]
  Activity: inactive
[6]
  Activity: inactive
[7]
  Activity: Active
[8]
  Activity: Dose-dependent effect
[9]
  Activity: Active

## CCCCCCCCCC/C=C/C=C/C(=O)CN(CC(=O)OC)S(=O)(=O)c1ccc(C)cc1
[8]
  Activity: Dose-dependent effect

## Cc1ccc(S(=O)(=O)N(CC(=O)O)CC(=O)/C=C/C=C/CCCCCCCCCCn2nnc3c2-c2ccccc2CN(C(=O)CCCCCNC(=O)C(F)(F)F)c2ccccc2-3)cc1
[2]
  Activity: Active

## O=C(CCCCCNC(=O)C(F)(F)F)N1Cc2ccccc2C#Cc2ccccc21
[10]
  Activity: Active
[11]
  Activity: inactive
